According to ChEMBL document CHEMBL5620409, “Discovery of tetrasubstituted thiophenes as Cisd2 activators: A potential novel therapeutic option in nonalcoholic fatty liver disease” (Eur J Med Chem, 2023):
Each block holds one compound with its values, some of them ahead of it. The source made the active and inactive calls. The rule behind the calls is not given here.

Key:
[1] = target: T1, CDGSH iron-sulfur domain-containing protein 2 (Homo sapiens, UniProt Q8N5K1); test: Activation of Cisd2 (unknown origin) transfected in HEK293 cells incubated for 24 hrs by one-glo luciferase assay; assay type: cell-based
T1 sequence (Q8N5K1 whole entry): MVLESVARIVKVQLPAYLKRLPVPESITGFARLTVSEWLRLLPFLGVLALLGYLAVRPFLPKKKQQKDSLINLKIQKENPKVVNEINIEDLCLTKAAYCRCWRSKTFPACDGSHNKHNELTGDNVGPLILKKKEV

[2] = Metabolic stability in mouse liver microsomes assessed as parent compound remaining at 5 uM in presence of NADPH-generating system measured for 30 mins by LC/MS analysis; assay type: ADME, Microsome; conditions: read-out: Stability
Mus musculus [3] = test: Anti-NAFLD activity in heterozygous hepatocyte-specific Cisd2 knockout C57BL/6 mouse assessed as reduction in ballooning degeneration of hepatocytes at 20 mg/kg, po measured for 2 weeks by H and E staining based analysis; assay type: functional, organism-based
Mus musculus [4] = test: Anti-NAFLD activity in heterozygous hepatocyte-specific Cisd2 knockout C57BL/6 mouse assessed as effect on triglyceride level in serum at 20 mg/kg, po measured for 12 week; assay type: functional, organism-based; conditions: time 12.0 weeks
[5] = Toxicity in wild type C57BL/6 mouse assessed as effect on GPT level in serum at 20 mg/kg, po administered for 2 weeks; assay type: organism-based; conditions: in vivo, 336 h
[6] = Toxicity in heterozygous hepatocyte-specific Cisd2 knockout C57BL/6 mouse assessed as effect on body weight at 20 mg/kg, po measured for 2 weeks; assay type: organism-based; conditions: in vivo, 336 h
[7] = Toxicity in heterozygous hepatocyte-specific Cisd2 knockout C57BL/6 mouse assessed as effect on GOT level in serum at 20 mg/kg, po administered for 2 weeks; assay type: organism-based; conditions: in vivo, 336 h
Mus musculus [8] = test: Anti-NAFLD activity in wild type C57BL/6 mouse assessed as effect on triglyceride level in serum at 20 mg/kg, po measured for 12 week; assay type: functional, organism-based; conditions: time 12.0 weeks
[9] = Toxicity in heterozygous hepatocyte-specific Cisd2 knockout C57BL/6 mouse assessed as effect on BUN level in serum at 20 mg/kg, po administered for 2 weeks; assay type: organism-based; conditions: in vivo, 336 h
[10] = Toxicity in wild type C57BL/6 mouse assessed as effect on ALT level in serum at 20 mg/kg, po administered for 2 weeks; assay type: organism-based; conditions: in vivo, 336 h
Mus musculus [11] = test: Anti-NAFLD activity in heterozygous hepatocyte-specific Cisd2 knockout C57BL/6 mouse assessed as abnormal hepatic lipid accumulation in liver at 20 mg/kg, po measured for 2 weeks; assay type: functional, organism-based
[12] = Toxicity in wild type C57BL/6 mouse assessed as effect on AST level in serum at 20 mg/kg, po administered for 2 weeks; assay type: organism-based; conditions: in vivo, 336 h
Mus musculus [13] = test: Anti-NAFLD activity in heterozygous hepatocyte-specific Cisd2 knockout C57BL/6 mouse assessed as reduction in hepatic steatosis in liver at 20 mg/kg, po measured for 2 weeks by H and E staining based analysis; assay type: functional, organism-based
[14] = Toxicity in wild type C57BL/6 mouse assessed as food intake at 20 mg/kg, po measured for 5 consecutive days; assay type: organism-based; conditions: in vivo, 120 h, time 5 day
Mus musculus [15] = test: Anti-NAFLD activity in wild type C57BL/6 mouse assessed as fold increase in Cisd2 expression in liver at 20 mg/kg, po measured for 12 week by Western blot analysis; assay type: functional; conditions: time 12 weeks
[16] = Toxicity in wild type C57BL/6 mouse assessed as effect on body weight at 20 mg/kg, po measured for 2 weeks; assay type: organism-based; conditions: in vivo, 336 h
[17] = Toxicity in heterozygous hepatocyte-specific Cisd2 knockout C57BL/6 mouse assessed as effect on CRE level in serum at 20 mg/kg, po administered for 2 weeks; assay type: organism-based; conditions: in vivo, 336 h
[18] = Toxicity in heterozygous hepatocyte-specific Cisd2 knockout C57BL/6 mouse assessed as effect on AST level in serum at 20 mg/kg, po administered for 2 weeks; assay type: organism-based; conditions: in vivo, 336 h
[19] = Toxicity in wild type C57BL/6 mouse assessed as effect on GOT level in serum at 20 mg/kg, po administered for 2 weeks; assay type: organism-based; conditions: in vivo, 336 h
[20] = Toxicity in heterozygous hepatocyte-specific Cisd2 knockout C57BL/6 mouse assessed as effect on ALT level in serum at 20 mg/kg, po administered for 2 weeks; assay type: organism-based; conditions: in vivo, 336 h
[21] = Toxicity in heterozygous hepatocyte-specific Cisd2 knockout C57BL/6 mouse assessed as effect on GPT level in serum at 20 mg/kg, po administered for 2 weeks; assay type: organism-based; conditions: in vivo, 336 h
[22] = Toxicity in wild type C57BL/6 mouse assessed as change in liver histology at 20 mg/kg, po administered for 2 weeks; assay type: organism-based; conditions: in vivo, 336 h
[23] = Toxicity in wild type C57BL/6 mouse assessed as effect on BUN level in serum at 20 mg/kg, po administered for 2 weeks; assay type: organism-based; conditions: in vivo, 336 h
Mus musculus [24] = test: Anti-NAFLD activity in heterozygous hepatocyte-specific Cisd2 knockout C57BL/6 mouse assessed as fold increase in Cisd2 expression in liver at 20 mg/kg, po measured for 12 week by Western blot analysis; assay type: functional; conditions: time 12 weeks
[25] = Toxicity in wild type C57BL/6 mouse assessed as effect on CRE level in serum at 20 mg/kg, po administered for 2 weeks; assay type: organism-based; conditions: in vivo, 336 h
Mus musculus [26] = test: Anti-NAFLD activity in heterozygous hepatocyte-specific Cisd2 knockout C57BL/6 mouse assessed as reduction in accumulation of fat in liver at 20 mg/kg, po measured for 2 weeks by oil red-O staining based analysis; assay type: functional, organism-based

- EC50 [1]: > 10000 nM
SMILES: COC(=O)c1c(N)sc(C(=O)Nc2nc3ccccc3s2)c1C

- EC50 [1]: 661 nM
SMILES: COC(=O)c1c(N)sc(C(=O)Nc2cccnc2)c1C

- EC50 [1]: 46 nM
- remaining at 0.5 h, 5 µM [2]: 27.6%
SMILES: COC(=O)c1c(N)sc(C(=O)Nc2ccc(C)cc2C)c1C

- EC50 [1]: 191 nM
- remaining at 0.5 h, 5 µM [2]: 91.8%
SMILES: COC(=O)c1c(N)sc(C(=O)Nc2ccc(O)cc2)c1C
- Activity (Mus musculus [3]): Active
- Activity (Mus musculus [4]): Active
- Activity [5]: Non-Toxic
- Activity [6]: Non-Toxic
- Activity [7]: Non-Toxic
- Activity (Mus musculus [8]): Active
- Activity [9]: Non-Toxic
- Activity [10]: Non-Toxic
- Activity (Mus musculus [11]): Active
- Activity [12]: Non-Toxic
- Activity (Mus musculus [13]): Active
- Activity [14]: Non-Toxic
- fold change (FC) (Mus musculus [15]): 1.3
- Activity [16]: Non-Toxic
- Activity [17]: Non-Toxic
- Activity [18]: Non-Toxic
- Activity [19]: Non-Toxic
- Activity [20]: Non-Toxic
- Activity [21]: Non-Toxic
- Activity [22]: Non-Toxic
- Activity [23]: Non-Toxic
- fold change (FC) (Mus musculus [24]): 2
- Activity [25]: Non-Toxic
- Activity (Mus musculus [26]): Active

- EC50 [1]: 12 nM
- remaining at 0.5 h, 5 µM [2]: 73.6%
SMILES: COC(=O)c1c(N)sc(C(=O)Nc2ccc(OC)cc2)c1C

- EC50 [1]: 95 nM
- remaining at 0.5 h, 5 µM [2]: 63.5%
SMILES: COC(=O)c1c(N)sc(C(=O)Nc2ccccc2)c1C

- EC50 [1]: 23 nM
- remaining at 0.5 h, 5 µM [2]: 59.2%
SMILES: COC(=O)c1c(N)sc(C(=O)Nc2cccc(OC)c2)c1C

- EC50 [1]: 34 nM
- remaining at 0.5 h, 5 µM [2]: 84.9%
SMILES: COC(=O)c1c(N)sc(C(=O)Nc2ccc(F)cc2)c1C
- Activity (Mus musculus [3]): Active
- Activity (Mus musculus [4]): Active
- Activity [5]: Non-Toxic
- Activity [6]: Non-Toxic
- Activity [7]: Non-Toxic
- Activity (Mus musculus [8]): Active
- Activity [9]: Non-Toxic
- Activity [10]: Non-Toxic
- Activity (Mus musculus [11]): Active
- Activity [12]: Non-Toxic
- Activity (Mus musculus [13]): Active
- Activity [14]: Non-Toxic
- fold change (FC) (Mus musculus [15]): 1.3
- Activity [16]: Non-Toxic
- Activity [17]: Non-Toxic
- Activity [18]: Non-Toxic
- Activity [19]: Non-Toxic
- Activity [20]: Non-Toxic
- Activity [21]: Non-Toxic
- Activity [22]: Non-Toxic
- Activity [23]: Non-Toxic
- fold change (FC) (Mus musculus [24]): 2
- Activity [25]: Non-Toxic
- Activity (Mus musculus [26]): Active

- EC50 [1]: 10 nM
- remaining at 0.5 h, 5 µM [2]: 73.2%
SMILES: COC(=O)c1c(N)sc(C(=O)Nc2ccc(C)cc2)c1C

- EC50 [1]: 35 nM
- remaining at 0.5 h, 5 µM [2]: 54.7%
SMILES: COC(=O)c1c(N)sc(C(=O)Nc2ccc(N(C)C)cc2)c1C

- EC50 [1]: 3070 nM
SMILES: COC(=O)c1c(N)sc(C(=O)Nc2ccccc2OC)c1C

- EC50 [1]: 233 nM
- remaining at 0.5 h, 5 µM [2]: 53.3%
SMILES: COC(=O)c1c(N)sc(C(=O)Nc2ccccc2C)c1C

- EC50 [1]: 82 nM
- remaining at 0.5 h, 5 µM [2]: 83.7%
SMILES: COC(=O)c1c(N)sc(C(=O)Nc2ccc(C#N)cc2)c1C

- EC50 [1]: > 10000 nM
SMILES: COC(=O)c1sccc1NC(=O)c1sc(N)c(C(=O)OC)c1C

- EC50 [1]: 35 nM
- remaining at 0.5 h, 5 µM [2]: 53.8%
SMILES: COC(=O)c1c(N)sc(C(=O)Nc2cccc(C)c2)c1C

More lines, now with the values behind:

SMILES: Cc1ccc(NC(=O)c2sc(N)c(C(=O)NCC#N)c2C)c(C)c1
- EC50 [1]: 1590 nM

SMILES: CC(=O)c1c(N)sc(C(=O)Nc2ccccc2)c1C
- EC50 [1]: 553 nM

SMILES: Cc1ccc(NC(=O)c2sc(N)c(C(=O)OC(C)(C)C)c2C)c(C)c1
- EC50 [1]: 1340 nM

SMILES: CC(=O)c1c(N)sc(C(=O)Nc2ccc(F)cc2)c1C
- EC50 [1]: 160 nM
- remaining at 0.5 h, 5 µM [2]: 49.2%

SMILES: COC(=O)c1c(NC(C)=O)sc(C(=O)Nc2ccc(C)cc2C)c1C
- EC50 [1]: 4440 nM

SMILES: Cc1ccc(NC(=O)c2sc(N)c(C(=O)OCc3ccccc3)c2C)c(C)c1
- EC50 [1]: > 10000 nM

SMILES: Cc1ccc(NC(=O)c2sc(N)c(C(=O)O)c2C)c(C)c1
- EC50 [1]: 296 nM

SMILES: CCOC(=O)c1c(N)sc(C(=O)Nc2ccc(C)cc2C)c1C
- EC50 [1]: 197 nM
- remaining at 0.5 h, 5 µM [2]: 60.6%

SMILES: COC(=O)c1c(N)sc(C(=O)Nc2ccc(C(F)(F)F)cc2)c1C
- EC50 [1]: 252 nM

SMILES: CNc1sc(C(=O)Nc2ccc(C)cc2C)c(C)c1C(=O)OC
- EC50 [1]: > 10000 nM

SMILES: COC(=O)c1c(N)sc(C(=O)Nc2cc(OC)c(OC)c(OC)c2)c1C
- EC50 [1]: 2180 nM

SMILES: Cc1ccc(NC(=O)c2sc(N)c(C(=O)OC(C)C)c2C)c(C)c1
- EC50 [1]: 1520 nM

SMILES: COC(=O)c1c(N)sc(C(=O)Nc2nccs2)c1C
- EC50 [1]: 153 nM
- remaining at 0.5 h, 5 µM [2]: 44.5%

SMILES: COC(=O)c1c(N)sc(C(=O)Nc2c(C)cc(C)cc2C)c1C
- EC50 [1]: 1700 nM

SMILES: COC(=O)c1cc(C(=O)Nc2ccc(C)cc2C)sc1N
- EC50 [1]: 2080 nM

SMILES: Cc1ccc(NC(=O)c2sc(N)c(C#N)c2C)c(C)c1
- EC50 [1]: 2670 nM

SMILES: Cc1ccc(NC(=O)c2sc(N)c(C(=O)CO)c2C)c(C)c1
- EC50 [1]: 809 nM

SMILES: CC(=O)c1c(N)sc(C(=O)Nc2ccc(C)cc2C)c1C
- EC50 [1]: 164 nM
- remaining at 0.5 h, 5 µM [2]: 0%

SMILES: Cc1ccc(NC(=O)c2sc(N)c(C(N)=O)c2C)c(C)c1
- EC50 [1]: 979 nM
